Data set [1] concerns HT-29 cells. In words: Cell growth inhibition (MTT) in the presence of 10 µM verapamil (sensitivity to MDR efflux pumps). In kind it is cell-based, human. The following applies: 10 µM verapamil (P-gp/MDR1 inhibitor). As for the experimental part: (§1) Cells were plated in 96-well plates (100 µL/well) at the following concentrations: 30,000 cells/mL (HepG2, U87 MG, T98G, C6, LNCaP, PC3, and HT-29 cells) or 15,000 cells/mL (HeLa and MCF-7 cells). Previous experiments were performed to choose the optimal cell concentration (70–80% confluence) and avoid the formation of cell aggregates. Cells were incubated in complete DMEM or RPMI 1640 medium (see above) at 37 °C and 5% CO2 atmosphere for 24 h to allow for cell attachment to the plate. Then, every compound was added (10 µL/well) to a final concentration of 10 µM. Non-treated cells were used as negative controls. The antiproliferative activity of compounds was measured 72 h after the treatments using the MTT reagent (3-[4,5-dimethylthiazol-2-yl]-2,5-diphenyltetrazolium bromide), (MTT Thiazolyl Blue Tetrazolium Bromide, Sigma-Aldrich, St. Louis, MO, USA) dissolved in PBS at 5 mg/mL. Compounds showing antiproliferative effects at 10 µM were selected to determine their IC50 value. For that purpose, compounds were used at different concentrations ranging from 10^−10 to 10^−2 M. Measurements were performed in triplicate, and each experiment was repeated three times. The IC50 value was determined for every compound using Origin software (OriginLab, Washington, USA). To study the sensitivity to MDR efflux pumps of compounds, the IC50 values were determined by following the same procedure but in the presence of verapamil (final concentration of 10 µM).

The test system of data set [2] is HeLa cells. In words: Cell growth inhibition assay (MTT). The format is cell-based, human. The following applies: Homo sapiens, HeLa, 72 h after drug exposure. The method, then:
(§2) The cell lines were obtained from ATTC (Manassas, VA, USA). HeLa (human cervix epithelioid carcinoma), MCF7 (human breast adenocarcinoma), HepG2 (human hepatocellular carcinoma), U87 MG (human glioblastoma), T98G (human glioblastoma), GL261 (murine glioma), LNCaP (human prostate cancer), PC-3 (human prostate cancer), and HEK-293 (human embryonic kidney) were grown in Dulbecco’s modified Eagle’s medium (DMEM, Gibco, Waltham, MA, USA), supplemented with 10% (v/v) heat-inactivated fetal bovine serum (HIFBS, Sigma-Aldrich, St. Louis, MO, USA)), 2 mM L-glutamine, 100 μg/mL streptomycin, and 100 units/mL penicillin (Gibco, Waltham, MA, USA) at 37 °C in saturated humidity atmosphere containing 95% air and 5% CO2. Cell line HT-29 (human colon carcinoma) was grown in Roswell Park Memorial Institute (RPMI) 1640 medium (Gibco, Whaltman, MA, USA) supplemented with 10% HIFBS, 100 μg/mL streptomycin, and 100 units/mL penicillin (Gibco, Whaltman, MA, USA) at 37 °C in humidified 95% air and 5% CO2 atmosphere. MycoAlert kit (Lonza, Norwest, Australia) was used to routinely check the presence of mycoplasma, and only mycoplasma-free cells were employed in the experiments.
as §1

Data set [3] deals with HT-29 cells. In words: Cell growth inhibition assay (MTT). In kind it is cell-based, human. As to conditions: Homo sapiens, HT-29, 72 h after drug exposure. As for the experimental part:
as §2, §1

Data set [4] has as its system LNCaP cells. In words: Cell growth inhibition assay (MTT). The format is cell-based, human. The following applies: Homo sapiens, LNCaP, 72 h after drug exposure. As for the experimental part: as §2, §1
Data set [5] has as its system T98G cells. In words: Cell growth inhibition assay (MTT). The format is cell-based, human. The following applies: Homo sapiens, T98G, 72 h after drug exposure. The method, then: as §2, §1
Data set [6] deals with U87MG cells. In words: Cell growth inhibition assay (MTT). As to conditions: Homo sapiens, U-87 MG; MTT, 72 h after drug exposure. The format is cell-based, human. As for the experimental part:
as §2, §1

For data set [7], the system named is MCF7 cells. In words: Cell growth inhibition assay (MTT). In kind it is cell-based, human. As to conditions: Homo sapiens, MCF7; MTT, 72 h after drug exposure. As for the experimental part:
as §2, §1

The test system of data set [8] is HepG2 cells. In words: Cell growth inhibition assay (MTT). In kind it is cell-based, human. The following applies: Homo sapiens, HepG2, 72 h after drug exposure. The method, then: as §2, §1
The test system of data set [9] is PC-3 cells. In words: Cell growth inhibition assay (MTT). The format is cell-based, human. As to conditions: Homo sapiens, PC-3, 72 h after drug exposure. The method, then: as §2, §1
The subject of data set [10] is bovine brain tubulin. In words: Tubulin polymerization inhibition (turbidimetry). The format is biochemical. The following applies: for Tubulin polymerization inhibition (in words): 10 µM; for % TPI: compounds tested at 10 µM, with respect to the negative control; for IC50: concentration inhibiting 50% of microtubular protein polymerization in vitro, read-out: TPI IC50. The method, then: Microtubular protein was isolated from calf brain following the modified Shelanski method, based on temperature-dependent assembly/disassembly of tubulin [45]. The protein was stored at −80 °C, and its concentration was determined using the Bradford method before each use. Tubulin polymerization, which occurs when heating a buffered tubulin sample from 4 °C to 37 °C, is accompanied by an increase in the absorbance (at 450 nm) of the sample that was monitored by a Helios α spectrophotometer. […] Then, the temperature was adjusted to 4 °C, and the temperature being shifted to 37 °C allowed for the assembly process of tubulin. The turbidity caused by tubulin polymerization was measured by the increased absorbance at 450 nm. The increase in absorbance obtained for the control sample (without the ligand), which we considered to be 100% tubulin polymerization (0% inhibition), compared with the increase in absorbance determined for the sample containing ligands yielded the degree of tubulin polymerization inhibition (TPI), which is expressed as a percentage value. For the compounds displaying TPI values over 50% at 10 µM, the IC50 value for TPI was calculated. Measurements were performed in triplicate in two independent experiments using microtubular protein from different preparations.

The test system of data set [11] is HEK-293 cells. In words: Cell growth inhibition assay (MTT), non-tumorigenic cells. The following applies: Homo sapiens, HEK293, 72 h after drug exposure, non-tumorigenic cell line. In kind it is cell-based, human. The method, then: as §2, §1
The nature of data set [12]: Aqueous solubility, shake-flask method. In kind it is physicochemical. The following applies: pH 7.0 buffer, pH 7, aqueous buffer, thermodynamic from solid, shaking flask, buffered media at pH 7.0, mean of three. The method, then:
The aqueous solubility of compounds was measured in a Helios Alfa Spectrophotometer. Calibration lines at the maximum wavelength of absorbance were determined for each compound. Then, following the shake-flask method, a suspension of 5 mg of each compound in 500 µL in pH 7.0 buffer was stirred for 72 h at room temperature. The mixture was then filtrated over a […] filter to remove the insoluble fraction. The concentration of the compound in the resulting saturated solution was determined via UV absorbance measurement and interpolation in the calibration line. The aqueous solubility values are given as the average of three independent measurements.

For data set [13], the system named is GL261 cells. In words: Cell growth inhibition assay (MTT). In kind it is cell-based, murine. The following applies: Mus musculus, GL261, 72 h after drug exposure. The method, then:
as §2, §1

Structures are written as SMILES. ≈ marks a conversion by molar mass, not a printed value.

Eight compounds from article PMC10301603, “Potent and Selective Benzothiazole-Based Antimitotics with Improved Water Solubility: Design, Synthesis, and Evaluation as Novel Anticancer Agents” (Pharmaceutics, 2023) can be followed below.

Take `COc1ccc2nc(N(C=O)Cc3ccc4ccccc4c3)sc2c1` [Compound 18, N-(6-methoxybenzo[d]thiazol-2-yl)-N-(naphthalen-2-ylmethyl)formamide]: the IC50 in [1], in data set [2], in data set [3], in data set [4], in data set [5] and in data set [6] was greater than 10000 nM in each case. In addition, the half-maximal inhibitory concentration (IC50) in data set [7], in [8], in data set [9], in data set [10], in data set [11] and in data set [13] was greater than 10000 nM each time. For the same compound, the “Tubulin polymerization inhibition (in words)” value in [10] was “not able to inhibit tubulin polymerization”. In addition, in data set [10], the “% TPI” value was 0%. The same compound registered a solubility at 72 h in data set [12] of less than 9 µg/mL.

As for `COc1ccc2nc(N(Cc3ccccn3)C(C)=O)sc2c1` [Compound 19, N-(6-methoxybenzo[d]thiazol-2-yl)-N-(pyridin-2-ylmethyl)acetamide], the IC50 worked out at 2930 nM in [1]; 1550 nM in data set [2]; 2540 nM in data set [3]; 2070 nM in data set [4]; 2440 nM in [5]; 1410 nM in [6]. Moreover, the IC50 in data set [7] was 2030 nM; in [8], 1880 nM; in data set [9], 3010 nM; in data set [10], greater than 10000 nM; in [11], greater than 10000 nM; in data set [13], 1380 nM. Moreover, the “% TPI” value in data set [10] was determined as 43%. This compound returned a solubility at 72 h in [12] of 87 µg/mL (≈ 278 µM).

As to `CCNC(=O)N(Cc1[nH]cnc1C)c1nc2ccc(OC)cc2s1` [Compound 10, 3-ethyl-1-(6-methoxybenzo[d]thiazol-2-yl)-1-((4-methyl-1H-imidazol-5-yl)methyl)-urea], the IC50 in data set [1], in data set [2], in data set [3], in [4], in data set [5] and in data set [6] was greater than 10000 nM each time. Further, the IC50 in data set [7], in data set [8], in [9], in data set [10], in data set [11] and in data set [13] was greater than 10000 nM in each case. The “Tubulin polymerization inhibition (in words)” value in [10] is on record as “not able to inhibit tubulin polymerization”. Further, the “% TPI” value in data set [10] is 0%. The compound further returned a solubility at 72 h in data set [12] of 178 µg/mL (≈ 515 µM).

Regarding `COc1ccc2nc(N(Cc3cccnc3)C(C)=O)sc2c1` [Compound 20, N-(6-methoxybenzo[d]thiazol-2-yl)-N-(pyridin-3-ylmethyl)acetamide], the 50% inhibitory concentration (IC50) turned out to be 1480 nM in data set [1]; 1030 nM in data set [2]; 1520 nM in [3]; 1390 nM in data set [4]; 825 nM in [5]; 632 nM in data set [6]. In addition, the IC50 in [7] was determined as 911 nM; in data set [8], 813 nM; in data set [9], 1620 nM; in [10], 8100 nM; in data set [11], 9900 nM; in data set [13], 622 nM. Besides, in data set [10], the “% TPI” value worked out at 57%. Besides, the solubility at 72 h in data set [12] was 93 µg/mL (≈ 297 µM).

`CC(=O)O[C@@]12CO[C@@H]1C[C@H](O)[C@@]1(C)C(=O)[C@H](O)C3=C(C)[C@@H](OC(=O)[C@H](O)[C@@H](NC(=O)OC(C)(C)C)c4ccccc4)C[C@@](O)([C@@H](OC(=O)c4ccccc4)[C@H]21)C3(C)C` [DTX, docetaxel, reference compound]: the IC50 in data set [2] worked out at 51 nM; in data set [3], 307 nM; in data set [4], 10 nM; in [5], 59 nM; in data set [6], 22 nM; in data set [7], 13 nM. The IC50 in data set [8] was found to be 55 nM; in data set [9] it was 20 nM; in [11] it was 1550 nM; in data set [13] it was 35 nM.

Turning to `COc1ccc2nc(NCc3[nH]cnc3C)sc2c1` [Compound 4, 6-methoxy-N-((4-methyl-1H-imidazol-5-yl)methyl)benzo[d]thiazol-2-amine], the IC50 in [1] is greater than 10000 nM; in data set [2] it was 9330 nM; in [3] it was greater than 10000 nM; in data set [4], greater than 10000 nM; in data set [5], greater than 10000 nM; in data set [6] it was greater than 10000 nM. The 50% inhibitory concentration (IC50) in data set [7], in [8], in data set [9], in data set [10], in data set [11] and in data set [13] was greater than 10000 nM throughout. For the same compound, the “Tubulin polymerization inhibition (in words)” value in data set [10] is “not able to inhibit tubulin polymerization”. Further, the “% TPI” value in data set [10] came out at 0%. This compound came in with a solubility at 72 h in data set [12] of 86 µg/mL (≈ 313 µM).

With `COc1ccc2nc(NCc3ccc4ccccc4c3)sc2c1` [Compound 6, 6-methoxy-N-(naphthalen-2-ylmethyl)benzo[d]thiazol-2-amine], the IC50 was greater than 10000 nM in data set [1]; 3710 nM in [2]; greater than 10000 nM in data set [3]; 4320 nM in data set [4]; greater than 10000 nM in data set [5]; 6540 nM in [6]. Moreover, the 50% inhibitory concentration (IC50) in [7] was 4230 nM; in [8] it was 4510 nM; in data set [9], greater than 10000 nM; in [10], greater than 10000 nM; in [11], greater than 10000 nM; in data set [13], 6250 nM. Further, in data set [10], the “Tubulin polymerization inhibition (in words)” value was “not able to inhibit tubulin polymerization”. Moreover, in data set [10], the “% TPI” value was found to be 7%.

As to `COc1ccc(S(=O)(=O)Nc2cccnc2Nc2ccc(O)cc2)cc1` [ABT-751, reference compound], the concentration for half-maximal inhibition (IC50) in data set [2] is 388 nM; in data set [3], 213 nM; in data set [4], 325 nM; in [5], 421 nM; in [6] it was 375 nM; in [7], 180 nM. The IC50 in [8] came to 327 nM; in [9] it was 422 nM; in data set [10] it was 4400 nM; in data set [11], 1230 nM; in data set [13], 309 nM.
